How the values were obtained:
[1] = target: PBP1b from Citrobacter freundii; assay: SPR moenomycin binding to immobilized full-length PBP; conditions: steady-state affinity, average values, read-out: SPR_KD
[2] = target: PBP2a from Enterococcus faecalis; assay: as above; conditions: steady-state affinity, average values, read-out: SPR_KD
[3] = target: PBP2a from Enterococcus faecalis; assay: Fluorescence anisotropy direct binding assay; conditions: FA direct binding, 100 nM F-Moe, 10 mM Tris pH 8.0, 100 mM NaCl; read-out: FA_KD
Description: Fluorescence anisotropy measurements were carried out in triplicates in the wells of 384-well plates using a laser fluorimetry equipped with a 488 nm laser (IsoCyte, Blueshift Biotech, Inc., Sunnyvale, Calif., USA). Various buffers, salts, pH values, and divalent cations (Ca^++, Mg^++, Co^++) were optimized for fluorescence anisotropy measurements. […] The scanning focus was above the plate bottom to avoid detection interferences. Data analysis was performed with the proprietary software, BlueImage (Blueshift Biotech Inc). Fluorescence anisotropy values (A) were calculated using the equation: A=(/∥−G*/⊥)/(/∥+2G*/⊥), where /∥ is the fluorescence intensity of emitted light parallel to excitation, /⊥ is the fluorescence intensity of emitted light perpendicular to excitation, and G is the […] that corrects for instrument bias. The G factor is experimentally determined for each run using the probe-only well as the basal an isotropy.
For direct binding assay, the initial condition contained 40 μl of 100 nM F-Moe in 10 mM Tris, pH 8.0, 100 mM NaCl. After a small volume of PBP stock was added, the anisotropy change was measured after a 5-minute equilibration. We assume that the direct titration follows a simple binding equilibrium between Ligand (L) and Receptor (R)
[formula] […]

Escherichia coli [4] = assay: Minimal inhibitory concentration (MIC) determination; type: cell-based
Pseudomonas aeruginosa = assay: as above; type: cell-based
Clostridium difficile [5] = assay: as above; type: cell-based
[6] = target: T1, E. coli PBP1b TG+TP (residues 88-844) (Escherichia coli, UniProt P02919); assay: SPR moenomycin binding to truncated PBP1b variant; conditions: PBP without the transmembrane domain
T1 construct: TG+TP (residues 88-844); His tag (implied by nickel chelation chromatography); made in house; host or cells: E. coli (pET vectors)
T1 sequence (P02919 88-844): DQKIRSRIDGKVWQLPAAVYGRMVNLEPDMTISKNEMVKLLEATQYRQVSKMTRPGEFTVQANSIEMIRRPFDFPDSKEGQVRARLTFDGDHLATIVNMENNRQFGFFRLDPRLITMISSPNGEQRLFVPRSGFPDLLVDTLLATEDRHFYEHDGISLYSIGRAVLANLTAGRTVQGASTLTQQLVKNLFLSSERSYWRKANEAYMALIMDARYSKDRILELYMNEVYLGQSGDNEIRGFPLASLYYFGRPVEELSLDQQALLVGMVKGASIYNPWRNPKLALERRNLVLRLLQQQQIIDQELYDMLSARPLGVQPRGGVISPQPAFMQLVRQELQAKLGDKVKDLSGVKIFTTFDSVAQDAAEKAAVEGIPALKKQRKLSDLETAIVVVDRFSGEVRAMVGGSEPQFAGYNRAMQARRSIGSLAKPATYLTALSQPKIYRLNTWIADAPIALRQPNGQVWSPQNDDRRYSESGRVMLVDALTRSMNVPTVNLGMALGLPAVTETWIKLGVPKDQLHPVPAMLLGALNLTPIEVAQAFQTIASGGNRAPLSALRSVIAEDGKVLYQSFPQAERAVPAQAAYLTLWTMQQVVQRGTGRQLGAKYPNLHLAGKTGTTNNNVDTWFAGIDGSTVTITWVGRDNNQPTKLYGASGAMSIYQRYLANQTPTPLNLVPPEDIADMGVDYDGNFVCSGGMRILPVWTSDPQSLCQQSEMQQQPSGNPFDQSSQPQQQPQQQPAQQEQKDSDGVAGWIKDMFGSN
Text: . Five E. coli PBP1b variants were expressed and purified: 1) full-length protein containing transmembrane, transglycosylase and transpeptidase domains (TM+TG+TP), 2) TG+TP, 3) TM+TG, 4) TG, and 5) TP (FIG. 1B).
. FIG. 1(B) is a schematic representation of the PBP variants used for moenomycin binding studies. The full-length PBP (TM+TG+TP) contains amino acid residues 1-844 of the E. coli PBP1b P02919. TG+TP (residues 88-844), TM+TG (residues 1-409), TG (residues 195-409), and TP (residues 444-736) are truncated variants with the part of the full-length PBP1b. The moenomycin binding constant (KD) for these variants were determined using SPR.
After immobilization of the target proteins on the sensor chip, different concentrations of moenomycin were passed through the surface and the binding affinities were determined. […].
Purified PBP and its variants were immobilized onto CM3 chip (GE healthcare, Uppsala, Sweden) to about 1,500˜2,000 RU via amine-coupling method. […]. Immobilization and data collection were performed with BIAcore T100 (GE Healthcare, Uppsala, Sweden) at 25° C.

Citrobacter freundii = conditions: literature citation 28; cited from earlier work
Escherichia coli [7] = conditions: literature citation 28; cited from earlier work
Helicobacter pylori = conditions: literature citation 29; cited from earlier work
Klebsiella pneumoniae = conditions: literature citation 28; cited from earlier work
Neisseria gonorrhoeae = conditions: literature citation 28; cited from earlier work
Salmonella enterica = conditions: literature citation 38; cited from earlier work
Shigella flexneri = conditions: literature citation 28; cited from earlier work
Bacillus subtilis = conditions: literature citation 30; cited from earlier work
Clostridium difficile [8] = conditions: literature citation 30; cited from earlier work
Enterococcus faecalis = conditions: literature citation 31; cited from earlier work

Moenomycin A [Compound 1]
Kd [1]: 728 nM
Kd [2]: 619 nM
Kd [3]: 276 ± 14 nM
MIC (Escherichia coli [4]): 80 µM
MIC (Pseudomonas aeruginosa): 40 µM
MIC (Clostridium difficile [5]): >160 µM
moenomycin binding activity of TG+TP variant relative to full-length PBP1b (fold lower) [6]: about 5 fold
moenomycin binding activity of TG+TP variant relative to full-length PBP1b (fold lower) ([6]; listed as Moe A): decreased five-fold
Reported values MIC (Citrobacter freundii): 352 µM
Reported values MIC (Escherichia coli [7]): 55 to 110 µM
Reported values MIC (Helicobacter pylori): 1.3 µM
Reported values MIC (Klebsiella pneumoniae): 13.75 to 27.5 µM
Reported values MIC (Neisseria gonorrhoeae): 1.69 µM
Reported values MIC (Salmonella enterica): 13.75 to 110 µM
Reported values MIC (Shigella flexneri): 27.5 to 110 µM
Reported values MIC (Bacillus subtilis): 0.07 to 0.43 µM
Reported values MIC (Clostridium difficile [8]): 220 to 440 µM
Reported values MIC (Enterococcus faecalis): 0.1 µM

From patent US8916540B2, “Antibiotic compositions and related screening methods” (Academia Sinica, priority 2008, dated 2014)
